Where a name gives a salt, the structure may show the parent alone. Read-outs that look alike come from different tables or passages of the source.
Assays:
hPSC-NSCs [1] = experiment: RT-PCR expression of dopamine neuron genes in hPSC-NSCs treated with small molecule hits; type: cell-based, human; settings: for fold induction at 2.5 µM: Homo sapiens, Neuron, 336 h
Method: (§1) The method specifically involved treating both hESC-H9-NSCs (Invitrogen) and hPSC-NSCs with Purmorphamine (2 μM) and FGF8 (100 ng/mL) in NB medium [NeuroBasal medium, 1× GlutaMAX, 1× N2/B27 Supplement (Invitrogen)] for 7 days. After 7 days of Purmorphamine and FGF8 treatment, the NSCs were dissociated with Accutase (Sigma) and plated 20,000 cells/mL into Matrigel coated 96 well plates and treated with small molecule library (Torcris 1120 Biologically Active Compounds) at 2.5 μM final concentration for two weeks (FIG. 6A). Two weeks after treatment with small molecules, all wells were visually observed and scored based on neurite density and dopamine release. For measuring neurite density, cells were fixed with 4% paraformaldehyde and phase contrast images were acquired using Cellavista Cell Imaging System (Roche Applied Science) from randomly selected fields. Neurite density was measured using the Cellavista density software image processing program. Each experimental condition was done in duplicate wells, and at least three independent experiments were conducted to acquire the final results.
(§2) Conditioned medium from the top neurite inducers (Table 1) (wells containing the highest density of neurites compare to control 0.1% DMSO treated) were collected and analyzed using a dopamine ELISA assay (Cosmo Bio). Conditioned medium was collected from samples containing 50,000 cells per well and centrifuged at 3000 RPM to remove cell debris. Supernatant was then collected and analyzed for quantitative determination of dopamine using a commercial dopamine ELISA assay kit (CusaCosmo Bio). Data analysis was performed using the microtiter plate reader (BIO-TEK Synergy 2). The results presented are from three independent experiments (n=3) and represented as mean±standard error of mean (s.e.m.) and statistical analysis was performed using the two-tailed Student's t-test with a confidence level of 95% (α=0.05) with statistical significance of P<0.05. Additionally, total RNA from each well were collected and analyze by RT-PCR for expression of TuJ1, MAP2, TH, GRK2, EN1, DAT, AADC, PAX2, NURR1, PITX3 and LMX1B from hPSC-NSCs (Table 2). […] Analysis of the ELISA data indicated the top small molecule neurite inducers produced higher levels of dopamine than control non-treated cells (1.5 ng/mL). […] The percentages of TH positive cells produced by chemical treatment with Kenpaullone (33%), Guggulsterone (35%), Kynurenic Acid (19%), Immedthridine Dihydrobromide (21%), and Dimaprit Dihydrochloride (18%) were higher than 15% of TH positive cells obtained from hPSC-NSCs differentiated for ≥1 month using a standard dopaminergic differentiation medium (BDNF 20 ng/mL, GDNF 20 ng/mL, cAMP 200 μM, Abscorbic Acid 200 μM, TGFβ3 2 ng/mL and DAPT).
Total RNA from at least triplicate samples with around 1 million cells each was isolated using either QIAsymphony automatic purification system or RNeasy Plus Mini kit, according to manufacturer's instructions (Qiagen). Total RNA was used for reverse transcription with the iScript cDNA synthesis kit (Biorad) and Px2 Thermal Cycler (Thermo Scientific). To analyze gene expression, PCR reactions were performed in duplicate using 1/25-th of the cDNA per reaction and the QuantiTect Primer Assay and Quantitest SYBR Green master mix (Qiagen). qPCR was performed using the Rotor-Gene Q (Qiagen) 5 min at 95° C., 5 s at 92° C., and 20 s at 60° C. for 37 cycles followed by melt to check the specificity of the amplicons from 50 to 99° C. raising by 1° C. each step. Relative quantification was performed against a standard curve and quantified values were normalized against the input determined by PPIG. The primers used for the analysis are listed in Supplementary Table S1. […]

hPSC-NSCs [2] = experiment: Percentage of TH positive cells produced by chemical treatment; type: cell-based, human; settings: chemical treatment 2.5 μM for two weeks
Method: as §1, §2

[3] = hPSC-NSCs primed 7 days with Purmorphamine and FGF8, small molecule 2.5 μM for two weeks, read-out: DDC (AADC) expression by RT-PCR
[4] = hPSC-NSCs primed 7 days with Purmorphamine and FGF8, small molecule 2.5 μM for two weeks, read-out: EN1 expression by RT-PCR
[5] = hPSC-NSCs primed 7 days with Purmorphamine and FGF8, small molecule 2.5 μM for two weeks, read-out: KCNJ6 expression by RT-PCR
[6] = hPSC-NSCs primed 7 days with Purmorphamine and FGF8, small molecule 2.5 μM for two weeks, read-out: MAP2 expression by RT-PCR
[7] = hPSC-NSCs primed 7 days with Purmorphamine and FGF8, small molecule 2.5 μM for two weeks, read-out: NR4A2 (NURR1) expression by RT-PCR
[8] = hPSC-NSCs primed 7 days with Purmorphamine and FGF8, small molecule 2.5 μM for two weeks, read-out: TH1 expression by RT-PCR
[9] = hPSC-NSCs primed 7 days with Purmorphamine and FGF8, small molecule 2.5 μM for two weeks, read-out: Tubb3 expression by RT-PCR
[10] = read-out: SLC6A3 (DAT) expression by RT-PCR
[11] = hPSC-NSCs primed 7 days with Purmorphamine and FGF8, small molecule 2.5 μM for two weeks, read-out: LMX1B expression by RT-PCR
[12] = hPSC-NSCs primed 7 days with Purmorphamine and FGF8, small molecule 2.5 μM for two weeks, read-out: Pax2 expression by RT-PCR
[13] = hPSC-NSCs primed 7 days with Purmorphamine and FGF8, small molecule 2.5 μM for two weeks

Molecule	fold induction at 2.5 µM (hPSC-NSCs [1]; [3])	fold induction at 2.5 µM (hPSC-NSCs [1]; [4])	fold induction at 2.5 µM (hPSC-NSCs [1]; [5])	fold induction at 2.5 µM (hPSC-NSCs [1]; [6])	fold induction at 2.5 µM (hPSC-NSCs [1]; [7])	fold induction at 2.5 µM (hPSC-NSCs [1]; [8])	fold induction at 2.5 µM (hPSC-NSCs [1]; [9])	percentage of TH positive cells (hPSC-NSCs [2]) [%]	fold induction at 2.5 µM (hPSC-NSCs [1]; [10])	fold induction at 2.5 µM (hPSC-NSCs [1]; [11])	fold induction at 2.5 µM (hPSC-NSCs [1]; [12])	also measured
CN(C)CCCSC(=N)N [Dimaprit dihydrochloride]	31.9	15.5	0.16	12.4	1.87	9.02	9.62	18				fold induction at 2.5 µM (hPSC-NSCs [1]; hPSC-NSCs primed 7 days with Purmorphamine and FGF8, small molecule 2.5 μM for two weeks, read-out: PITX3 expression by RT-PCR): 0.45
c1cc(Cc2cnc[nH]2)ccn1 [Immethridine dihydrobromide]	28.2	11.8	0.22	12.7	0.52	9.72	10.6	21	33.6	7.66	41.2	
O=C1Cc2c([nH]c3ccc(Br)cc23)-c2ccccc2N1 [Kenpaullone]	11.1	11	0.12	8.17	0.05	2.15	9.61	33	108			
O=C(O)c1cc(=O)c2ccccc2[nH]1 [Kynurenic acid]	37.5	9.25	0.07	9.12	0.27	16.8	6.43	19		6.36	1.16	fold induction at 2.5 µM (hPSC-NSCs [1]; hPSC-NSCs primed 7 days with Purmorphamine and FGF8, small molecule 2.5 μM for two weeks, read-out: SLC6A3 (DAT) expression by RT-PCR): 3.41
O=C(O)/C=C/CO [trans-4-Hydroxycrotonic acid]	69.7	12.7	0.22	12.4	4.49	13.2	10.8		6.11			
AM580												DDC (AADC) expression by RT-PCR (hPSC-NSCs [1]; [13]): 81.43; EN1 expression by RT-PCR (hPSC-NSCs [1]; [13]): 12.94; KCNJ6 (GRK2) expression by RT-PCR (hPSC-NSCs [1]; [13]): 2.73; LMX1B expression by RT-PCR (hPSC-NSCs [1]; [13]): 2.16; MAP2 expression by RT-PCR (hPSC-NSCs [1]; [13]): 8.55; NR4A2 (NURR1) expression by RT-PCR (hPSC-NSCs [1]; [13]): 7.11; Pax2 expression by RT-PCR (hPSC-NSCs [1]; [13]): 0.1; SLC6A3 (DAT) expression by RT-PCR (hPSC-NSCs [1]; [13]): 0.66; TH1 expression by RT-PCR (hPSC-NSCs [1]; [13]): 5.28; Tubb3 expression by RT-PCR (hPSC-NSCs [1]; [13]): 4.58

Source: patent publication US9926529B2, “Derivation of neural stem cells and dopaminergic neurons from human pluripotent stem cells” (International Stem Cell Corporation, priority 2012, dated 2018)
